Measurements as given in PubChem BioAssay AID1963965 (Molecular Pharmacology Branch, DTP, NCI, 2024).

Tested on: 996289-038-R-J1-PDC spheroid viability
Experiment: Anticancer human tumor 996289-038-R-J1-PDC patient-derived colon adenocarcinoma cell line growth inhibition [PI3K]
Details: spheroids with HUVEC and MSC; for IC50: curve of first compound; for viability, T/C: stronger effect = lower value
Summary of the method: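 Viability of mixed-cell spheroids was determined after exposure to pairwise combinations, one partner being inavolisib, alpelisib, duvelisib or copanlisib. Highest tested concentration matched clinical Cmax where known and 10 microM where not, descending in half-log steps.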

[1] = second compound 0.0316 µM, first compound 0.0316 µM
[2] = second compound 0.0316 µM, first compound 0.1 µM
[3] = second compound 0.1 µM, first compound 0.0316 µM
[4] = second compound 0.1 µM, first compound 0.1 µM
[5] = second compound 0.316 µM, first compound 0.0316 µM
[6] = second compound 0.316 µM, first compound 0.1 µM
[7] = second compound 1 µM, first compound 0.0316 µM
[8] = second compound 1 µM, first compound 0.1 µM
[9] = second compound 3.16 µM, first compound 0.0316 µM
[10] = second compound 3.16 µM, first compound 0.1 µM
[11] = second compound 10 µM, first compound 0.0316 µM
[12] = second compound 10 µM, first compound 0.1 µM
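Note: spheroids exposed to compounds for seven days before viability read.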
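Throughout, for viability, T/C: luminescence used as a proxy for viable cell amount; percent viability relative to DMSO vehicle control as 100%.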

With `CC(C)n1nc(-c2ccc3oc(N)nc3c2)c2c(N)ncnc21` + Cc1nc(NC(=O)N2CCCC2C(N)=O)sc1-c1ccnc(C(C)(C)C(F)(F)F)c1 the IC50 (second compound 0.0316 µM) was 54.8 nM, the IC50 (second compound 0.1 µM) was 27.3 nM and the IC50 (second compound 0.316 µM) was 41.5 nM. The IC50 (second compound 1 µM) was 26 nM, the IC50 (second compound 3.16 µM) was 2.54 nM and the IC50 (second compound 10 µM) was < 0.316 nM. For the same compound, the viability, T/C (second compound 0.0316 µM, first compound 0.000316 µM) was 97.1%, the viability, T/C (second compound 0.0316 µM, first compound 0.001 µM) was 83.5% and the viability, T/C (second compound 0.0316 µM, first compound 0.00316 µM) was 89.2%. It also gave a viability, T/C (second compound 0.0316 µM, first compound 0.01 µM) of 79%, a viability, T/C [1] of 66.5% and a viability, T/C [2] of 33.1%. It also gave a viability, T/C (second compound 0.1 µM, first compound 0.000316 µM) of 100%, a viability, T/C (second compound 0.1 µM, first compound 0.001 µM) of 83.2% and a viability, T/C (second compound 0.1 µM, first compound 0.00316 µM) of 78.4%. It also gave a viability, T/C (second compound 0.1 µM, first compound 0.01 µM) of 61.7%, a viability, T/C [3] of 54.5% and a viability, T/C [4] of 25.4%. The viability, T/C (second compound 0.316 µM, first compound 0.000316 µM) was 77.7%, the viability, T/C (second compound 0.316 µM, first compound 0.001 µM) was 86.4% and the viability, T/C (second compound 0.316 µM, first compound 0.00316 µM) was 93%. It also gave a viability, T/C (second compound 0.316 µM, first compound 0.01 µM) of 58.9%, a viability, T/C [5] of 63.3% and a viability, T/C [6] of 24.1%. The viability, T/C (second compound 1 µM, first compound 0.000316 µM) was 72.5%, the viability, T/C (second compound 1 µM, first compound 0.001 µM) was 79.9% and the viability, T/C (second compound 1 µM, first compound 0.00316 µM) was 66.5%. The viability, T/C (second compound 1 µM, first compound 0.01 µM) was 59.5%, the viability, T/C [7] was 49.8% and the viability, T/C [8] was 22.3%. The viability, T/C (second compound 3.16 µM, first compound 0.000316 µM) was 63.9%, the viability, T/C (second compound 3.16 µM, first compound 0.001 µM) was 53% and the viability, T/C (second compound 3.16 µM, first compound 0.00316 µM) was 48.5%. For the same compound, the viability, T/C (second compound 3.16 µM, first compound 0.01 µM) was 40.6%, the viability, T/C [9] was 32.3% and the viability, T/C [10] was 17.2%. It also gave a viability, T/C (second compound 10 µM, first compound 0.000316 µM) of 43.9%, a viability, T/C (second compound 10 µM, first compound 0.001 µM) of 40.8% and a viability, T/C (second compound 10 µM, first compound 0.00316 µM) of 40.4%. For the same compound, the viability, T/C (second compound 10 µM, first compound 0.01 µM) was 35.5%, the viability, T/C [11] was 25.2% and the viability, T/C [12] was 14.2%.

`CC1(C)CCC(CN2CCN(c3ccc(C(=O)NS(=O)(=O)c4ccc(NCC5CCOCC5)c([N+](=O)[O-])c4)c(Oc4cnc5[nH]ccc5c4)c3)CC2)=C(c2ccc(Cl)cc2)C1` + Cc1nc(NC(=O)N2CCCC2C(N)=O)sc1-c1ccnc(C(C)(C)C(F)(F)F)c1 was tested, and the IC50 (second compound 0.0316 µM) was 9830 nM, the IC50 (second compound 0.1 µM) was 8620 nM and the IC50 (second compound 0.316 µM) was 8310 nM. For the same compound, the IC50 (second compound 1 µM) was 6150 nM, the IC50 (second compound 3.16 µM) was 4840 nM and the IC50 (second compound 10 µM) was < 31.6 nM. For the same compound, the viability, T/C [1] was 94%, the viability, T/C [2] was 91.8% and the viability, T/C (second compound 0.0316 µM, first compound 0.316 µM) was 105%. For the same compound, the viability, T/C (second compound 0.0316 µM, first compound 1 µM) was 110%, the viability, T/C (second compound 0.0316 µM, first compound 3.16 µM) was 96.9% and the viability, T/C (second compound 0.0316 µM, first compound 10 µM) was 49.3%. It also gave a viability, T/C [3] of 95.2%, a viability, T/C [4] of 102% and a viability, T/C (second compound 0.1 µM, first compound 0.316 µM) of 88.1%. The viability, T/C (second compound 0.1 µM, first compound 1 µM) was 102%, the viability, T/C (second compound 0.1 µM, first compound 3.16 µM) was 105% and the viability, T/C (second compound 0.1 µM, first compound 10 µM) was 42.8%. It also gave a viability, T/C [5] of 88.8%, a viability, T/C [6] of 84.9% and a viability, T/C (second compound 0.316 µM, first compound 0.316 µM) of 95.9%. The viability, T/C (second compound 0.316 µM, first compound 1 µM) was 93.2%, the viability, T/C (second compound 0.316 µM, first compound 3.16 µM) was 92.5% and the viability, T/C (second compound 0.316 µM, first compound 10 µM) was 42.1%. The viability, T/C [7] was 68.6%, the viability, T/C [8] was 83.4% and the viability, T/C (second compound 1 µM, first compound 0.316 µM) was 67.8%. It also gave a viability, T/C (second compound 1 µM, first compound 1 µM) of 82.6%, a viability, T/C (second compound 1 µM, first compound 3.16 µM) of 75.8% and a viability, T/C (second compound 1 µM, first compound 10 µM) of 31.6%. It also gave a viability, T/C [9] of 66.3%, a viability, T/C [10] of 60.9% and a viability, T/C (second compound 3.16 µM, first compound 0.316 µM) of 60.4%. It also gave a viability, T/C (second compound 3.16 µM, first compound 1 µM) of 61%, a viability, T/C (second compound 3.16 µM, first compound 3.16 µM) of 62.6% and a viability, T/C (second compound 3.16 µM, first compound 10 µM) of 29.3%. The viability, T/C [11] was 34.9%, the viability, T/C [12] was 41.8% and the viability, T/C (second compound 10 µM, first compound 0.316 µM) was 42.2%. The viability, T/C (second compound 10 µM, first compound 1 µM) was 54.4%, the viability, T/C (second compound 10 µM, first compound 3.16 µM) was 45.1% and the viability, T/C (second compound 10 µM, first compound 10 µM) was 15.4%.
